Assay results taken from US20100285032A1, “ESTROGEN RECEPTOR-RELATED RECEPTOR GAMMA (ERR GAMMA) IN BONE AND CARTILAGE FORMATION AND METHODS AND COMPOSITIONS RELATING TO SAME” (priority 2007, published 2010).

Assays:
[1] = biological target: T1, ERRγ (Homo sapiens, UniProt P62508); conditions: cited from earlier work
T1 sequence (P62508 1-458): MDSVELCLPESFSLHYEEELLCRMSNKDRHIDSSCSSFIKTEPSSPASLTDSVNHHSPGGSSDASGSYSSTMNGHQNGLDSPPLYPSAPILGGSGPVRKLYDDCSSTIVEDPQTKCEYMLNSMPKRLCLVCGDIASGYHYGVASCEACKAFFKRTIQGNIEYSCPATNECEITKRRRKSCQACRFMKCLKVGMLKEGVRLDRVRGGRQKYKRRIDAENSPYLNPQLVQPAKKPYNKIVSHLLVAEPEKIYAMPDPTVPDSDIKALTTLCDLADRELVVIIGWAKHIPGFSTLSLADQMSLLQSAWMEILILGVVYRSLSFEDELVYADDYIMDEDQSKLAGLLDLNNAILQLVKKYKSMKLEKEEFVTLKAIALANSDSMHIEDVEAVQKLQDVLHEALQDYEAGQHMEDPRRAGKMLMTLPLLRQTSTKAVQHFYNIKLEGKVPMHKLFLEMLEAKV

[2] = test system: ERRs; conditions: cited from earlier work
[3] = biological target: T2, ERRα (Homo sapiens, UniProt P11474); conditions: yeast-based and mammalian transient transfection assays; cited from earlier work
T2 construct: host or cells: yeast
T2 sequence (P11474 1-423): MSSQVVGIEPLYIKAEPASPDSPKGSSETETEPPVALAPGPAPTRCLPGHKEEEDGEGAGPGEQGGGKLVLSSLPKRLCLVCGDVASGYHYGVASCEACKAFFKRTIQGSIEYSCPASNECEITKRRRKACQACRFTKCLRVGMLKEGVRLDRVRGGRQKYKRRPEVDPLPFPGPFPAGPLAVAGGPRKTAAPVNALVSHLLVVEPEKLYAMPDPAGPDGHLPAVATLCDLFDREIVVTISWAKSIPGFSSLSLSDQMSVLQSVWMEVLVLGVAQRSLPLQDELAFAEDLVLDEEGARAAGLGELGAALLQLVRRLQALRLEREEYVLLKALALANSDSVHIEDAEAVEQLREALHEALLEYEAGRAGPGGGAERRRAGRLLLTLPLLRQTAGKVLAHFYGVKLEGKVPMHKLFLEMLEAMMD

[4] = test system: C5.18 cells; test: Cartilage nodule formation in C5.18 cell cultures after oligonucleotide treatment; format: cell-based, rat; conditions: C5.18 cultures, treated during differentiation phase
Description: (§1) Cells were isolated from 21-day-old fetal Wistar rat or neonatal mouse calvariae or were the chondrogenic C5.18 cell line and were grown for osteogenic or chondrogenic differentiation as described previously (Bonnelye et al., 2001; Bonnelye et al., 2007). Medium was replaced every second day and cells were cultured at 37° C. in a 5% CO2 humidified atmosphere for 15-20 days until mineralized bone nodules or cartilage nodules had formed in control cultures.
(§2) Rat calvarial cells were plated into 24 well plates at 10^4 cells/well. Antisense oligonucleotide inhibition of ERRγ expression was accomplished with a 20-base phosphorothioate-modified oligonucleotide. Control dishes were treated with the complementary sense oligonucleotide or no oligonucleotide. Briefly, oligonucleotide concentrations that have been found previously not to be toxic (0.5 μM to 2 μM) were added directly to cells during the proliferation (day 1-5) or differentiation phase (day 5 (end of proliferation) to 11) in standard medium as above supplemented with 50 μg/ml ascorbic acid, 10 mM sodium β-glycerophosphate. Medium was changed every 2 days and fresh oligonucleotides were added at each change. At day 15, cultures were terminated and stained for alkaline phosphatase according to previous protocols (Bonnelye et al., 2001).

[5] = test system: rat calvaria (RC) cells; test: Bone nodule formation in rat calvaria (RC) cell cultures after oligonucleotide treatment; format: cell-based
Description: as §1, §2

[6] = test system: PGC-1/ERRα; conditions: cited from earlier work

4-hydroxytamoxifen
activity on ERRγ (agonist/antagonist) [1]: antagonize ERRγ | activity on ERRs (agonist/antagonist) [2]: antagonists of ERRs

CC1(C)C(C(Cl)Cl)C2(Cl)C(Cl)C(Cl)C1(Cl)C2(Cl)Cl (stereo not shown) [toxaphene]
effect on constitutive activity of ERRα [3]: suppress the constitutive activity of ERRα

O=c1c(-c2ccc(O)cc2)coc2cc(O)cc(O)c12 [genistein]
activity on ERRs (agonist/antagonist) [2]: agonists of ERRs

ggtGGTTGACGCTGTCCGTCagg (antisense GGTGGTTGACGCTGTCCGTCAGG; all phosphorothioate, sugars by position and methylation of C not given here) [antisense oligonucleotide]
cartilage nodule formation [4]: tended to increase | bone nodule formation ([5]; RC cultures, treated during differentiation phase (day 5 to 11)): significantly increased | bone nodule formation ([5]; RC cultures, treated during proliferation phase (day 1-5)): significantly increased | bone nodule formation ([5]; rat calvaria osteoblastic cells, treatment phase not stated): increases bone nodule formation

CC/C(=C(/CC)c1ccc(O)cc1)c1ccc(O)cc1 [diethylstilbestrol]
activity on ERRs (agonist/antagonist) [2]: antagonists of ERRs

O=c1c(-c2ccc(O)cc2)coc2cc(O)ccc12 [daidzein]
activity on ERRs (agonist/antagonist) [2]: agonists of ERRs

COc1cc(/C=C(\C#N)C(=O)Nc2nnc(C(F)(F)F)s2)ccc1OCc1ccc(C(F)(F)F)cc1C(F)(F)F [XCT790]
activity on PGC-1/ERRα dependent signaling [6]: inverse agonists

CC(C)c1ccc(/C=N/NC(=O)c2ccc(O)cc2)cc1 [GSK4716]
activity on ERRγ (agonist/antagonist) [1]: agonists of ERRγ

O=c1cc(-c2ccc(O)c(O)c2)oc2ccc(O)cc12 [6,3′,4′-trihydroxyflavone]
activity on ERRs (agonist/antagonist) [2]: agonists of ERRs

COc1ccc(-c2coc3cc(O)cc(O)c3c2=O)cc1 [biochanin A]
activity on ERRs (agonist/antagonist) [2]: agonists of ERRs

CN(C)CCOc1ccc(/C(=C(/CCCl)c2ccccc2)c2ccc(O)cc2)cc1 [4-hydroxytoremifene]
activity on ERRγ (agonist/antagonist) [1]: antagonize ERRγ

ClC1=C(Cl)C2(Cl)C3C(Cl)C(Cl)CC3C1(Cl)C2(Cl)Cl (stereo not shown) [chlordane]
effect on constitutive activity of ERRα [3]: suppress the constitutive activity of ERRα
